Results on 15 compounds are retold here after patent US6169181A, “Compounds useful to treat retroviral infections” (Pharmacia & Upjohn Company, priority 1998, dated 2001).

Structures are written as SMILES. Like-named read-outs stand apart in the source and are kept apart here. A value given as a limit tells only on which side of the number the result lay.

The target of the assay is HIV-1 protease (Human immunodeficiency virus type 1 group M subtype B, UniProt P04585). The assay can be described thus: biochemical. As for the experimental part:
The HIV protease screening assay is based on fluorescently labeled substrate which can be resolved from nonlabeled cleavage product using special beads coated with streptavidin. The substrate is biotinylated at the amino terminal arginine and fluorescently labeled with fluorescein isothiocynate (FITC) at the carboxyl terminal lysine. This assay has been employed to detect novel, nonpeptidic inhibitors of HIV-1 protease. Substrate (20 μM of 0.2 μM), sample (10 μl of desired concentraion), and enzyme (10 μl of 0.1 μM) are added to a 96 well pandex plate. The assay is run in 0.1 M sodium acetate buffer at pH 5.5 in the presence of 1.0 M sodium chloride and 0.05% NP-40 with incubated in the dark for one hour at room temperature. Strepavidin coated polystyrene beads {40 μl of 0.1% (w/v)} are added and the plate is incubated in the dark for an additional half hour. The labeled cleavage product is separated from the unreacted substrate via filtration and is read on the Idexx screen machine. The data are analyzed by appropriate computer algorithms to ascertain percent inhibition values.

Setting [1] is: Table II, enzyme HIV-1, DOSE 0.123 (unit not given).
[2] abbreviates: Table II, enzyme HIV-1, DOSE 0.370 (unit not given).
The mark [3] stands for this setting: Table II, enzyme HIV-1, DOSE 1.100 (unit not given).
The mark [4] stands for this setting: Table II, enzyme HIV-1, DOSE 3.300 (unit not given).
Setting [5] is: Table II, enzyme HIV-1, DOSE 10.000 (unit not given).
Setting [6] is: Table II, enzyme HIV-1, DOSE 30.000 (unit not given).
Where [7] appears, read: Table I, Dose 0.123 μM, read-out: Protease % Inhib.
Setting [8] is: Table I, Dose 0.370 μM, read-out: Protease % Inhib.
The mark [9] stands for this setting: Table I, Dose 1.100 μM, read-out: Protease % Inhib.
[10] abbreviates: Table I, Dose 3.300 μM, read-out: Protease % Inhib.
Setting [11] is: Table I, Dose 10.000 μM, read-out: Protease % Inhib.
The mark [12] stands for this setting: Table I, Dose 30.000 μM, read-out: Protease % Inhib.

For `CCC(C1=C(O)CC(CC(C)C)(CC(C)C)OC1=O)c1cccc(NS(=O)(=O)c2ccc(C#N)cn2)c1` (racemic) [Example 304, 5-Cyano-N-[3-(1-[5,6-dihydro-6,6-diisobutyl-4-hydroxy-2-oxo-2H-pyran-3-yl]propyl)phenyl]-2-pyridinesulfonamide], the “PROTEASE % INHIB.” value runs as follows: under setting [1], 92.01%; under setting [2], 93.28%; under setting [3], 96.47%; under setting [4], 100.47%; under setting [5], 107.61%; under setting [6], 79.68%.
As for `CC[C@H](Cc1ccccc1)c1cc(O)c(C(c2cccc(NS(=O)(=O)c3ccc(C#N)cc3)c2)C2CC2)c(=O)o1` (single isomer, unassigned) [Example 149, N-(3-(R or S)-{Cyclopropyl-[6-(1-(R)-ethylphenethyl)-4-hydroxy-2-oxo-2H-pyran-3-yl]-methyl}-phenyl)-4-cyanobenzenesulfonamide], the “PROTEASE % INHIB.” value is listed as 80.51% (Table I, Dose 0.123 μM); 87.52% (Table I, Dose 0.370 μM); 96.32% (Table I, Dose 1.100 μM); 92.86% (Table I, Dose 3.300 μM); 97.12% (Table I, Dose 10.000 μM); 95.99% (Table I, Dose 30.000 μM).
`CCCCCC1(CCCCC)CC(O)=C(C(CC)c2cccc(NS(=O)(=O)c3cn(C)cn3)c2)C(=O)O1` (stereo not drawn) [Example 63, N-[3-[1-(4-Hydroxy-2-oxo-6,6-dipentyl-5,6-dihydro-2H-pyran-3-yl)-propyl]-phenyl]-1-methyl-1H-imidazole-4-sulfonamide]: for the setting “read-out: Protease % Inhib”, the inhibition at 0.123 µM was found to be 68.9%, the inhibition at 0.37 µM was determined as 79.6%, the inhibition at 1.1 µM turned out to be 88.6% and the inhibition at 3.3 µM stood at 87.4%. Further, for the setting “read-out: Protease % Inhib”, the inhibition at 10 µM was determined as 83.6% and the inhibition at 30 µM was found to be 78.8%.
Regarding `CCCCCC1(CCCCC)CC(O)=C(C(CC)c2cccc(NS(=O)(=O)c3ccc(C#N)cc3)c2)C(=O)O1` (stereo not drawn) [Example 64, 4-Cyano-N-[3-[1-(4-Hydroxy-2-oxo-6,6-dipentyl-5,6-dihydro-2H-pyran-3-yl)-propyl]-phenyl]-benzenesulfonamide], the inhibition at 0.123 µM under setting [7] is 27.9%. For the same compound, the inhibition at 0.37 µM under setting [8] was 50.8%. The inhibition at 1.1 µM under setting [9] came to 75.6%. Moreover, under setting [10], the inhibition at 3.3 µM came out at 80.9%. For the same compound, the inhibition at 10 µM under setting [11] was determined as 82%. Moreover, under setting [12], the inhibition at 30 µM was 84.4%.
`N#Cc1ccc(S(=O)(=O)Nc2cccc(C(c3c(O)cc(C(CC4CC4)CC4CC4)oc3=O)C3CC3)c2)cc1` (stereo not drawn) [Example 95, 4-Cyano-N-(3-{cyclopropyl-[6-(2-cyclopropyl-1-cyclopropylmethyl-ethyl)-4-hydroxy-2-oxo-2H-pyran-3-yl]-methyl}-phenyl)-benzenesulfonamide]: the inhibition at 0.123 µM under setting [7] worked out at 91.2%. Moreover, the inhibition at 0.37 µM under setting [8] was 102%. Further, the inhibition at 1.1 µM under setting [9] came to 106%. Besides, the inhibition at 3.3 µM under setting [10] was 113%. Further, under setting [11], the inhibition at 10 µM stood at 110%. Under setting [12], the inhibition at 30 µM came to 113%.
Take `O=c1oc(C(CC2CC2)CC2CC2)cc(O)c1C(c1cccc(NS(=O)(=O)c2cccc3cccnc23)c1)C1CC1` (stereo not drawn) [Example 96, N-(3-{Cyclopropyl-[6-(2-cyclopropyl-1-cyclopropylmethyl-ethyl)-4-hydroxy-2-oxo-2H-pyran-3-yl]-methyl}-phenyl)-8-quinolinesulfonamide]: the inhibition at 0.123 µM under setting [7] amounted to 94.2%. Moreover, under setting [8], the inhibition at 0.37 µM came to 119%. In addition, under setting [9], the inhibition at 1.1 µM amounted to 122%. In addition, the inhibition at 3.3 µM under setting [10] came to 111%. The inhibition at 10 µM under setting [11] was 111%. Further, the inhibition at 30 µM under setting [12] was determined as 109%.
As to `COCCOCCCc1cc(O)c(C(c2cccc(NS(=O)(=O)c3cn(C)cn3)c2)C2CC2)c(=O)o1` (stereo not drawn) [Example 104, N-(3-{Cyclopropyl-[4-hydroxy-6-(3-{2-methoxy-ethoxy}-propyl)-2-oxo-2H-pyran-3-yl]-methyl}-phenyl)-1-methyl-1H-imidazole-4-sulfonamide], under setting [7], the inhibition at 0.123 µM is under 10%. In addition, the inhibition at 0.37 µM under setting [8] came out at 61.7%. Besides, the inhibition at 1.1 µM under setting [9] amounted to 81.8%. For the same compound, under setting [10], the inhibition at 3.3 µM was 93.3%. Besides, the inhibition at 10 µM under setting [11] is 96.4%. The inhibition at 30 µM under setting [12] came out at 109%.
`CCC(CCOCCOC)c1cc(O)c(C(c2cccc(NS(=O)(=O)c3cn(C)cn3)c2)C2CC2)c(=O)o1` (stereo not drawn) [Example 105, N-(3-{Cyclopropyl-[6-(1-ethyl-3-{2-methoxy-ethoxy}-propyl)-4-hydroxy-2-oxo-2H-pyran-3-yl]-methyl}-phenyl)-1-methyl-1H-imidazole-4-sulfonamide]: under setting [7], the inhibition at 0.123 µM was found to be 101%. The inhibition at 0.37 µM under setting [8] was 115%. Further, the inhibition at 1.1 µM under setting [9] was found to be 107%. The inhibition at 3.3 µM under setting [10] turned out to be 111%. Further, under setting [11], the inhibition at 10 µM was 111%. Under setting [12], the inhibition at 30 µM worked out at 111%.
As to `CCC(CCN=[N+]=[N-])c1cc(O)c(C(c2cccc(NS(=O)(=O)c3cn(C)cn3)c2)C2CC2)c(=O)o1` (stereo not drawn) [Example 109, N-(3-{[6-(3-Azido-1-ethyl-propyl)-4-hydroxy-2-oxo-2H-pyran-3-yl]-cyclopropyl-methyl}-phenyl)-1-methyl-1H-imidazole-4-sulfonamide], the inhibition at 0.123 µM under setting [7] amounted to 105%. For the same compound, the inhibition at 0.37 µM under setting [8] was 99.3%. The inhibition at 1.1 µM under setting [9] amounted to 104%. Also, the inhibition at 3.3 µM under setting [10] turned out to be 101%. Further, under setting [11], the inhibition at 10 µM came out at 109%. Further, under setting [12], the inhibition at 30 µM stood at 109%.
As for `CCC(CC1CCOCC1)c1cc(O)c(C(c2cccc(NS(=O)(=O)c3cn(C)cn3)c2)C2CC2)c(=O)o1` (stereo not drawn) [Example 135, N-(3-{Cyclopropyl-[6-(1-(tetrahydropyran-4-ylmethyl)-propyl)-4-hydroxy-2-oxo-2H-pyran-3-yl]-methyl}-phenyl)-1-methyl-1H-imidazole-4-sulfonamide], the inhibition at 0.123 µM under setting [7] came out at 33.2%. The inhibition at 0.37 µM under setting [8] is 84.5%. The inhibition at 1.1 µM under setting [9] was found to be 99.1%. Besides, the inhibition at 3.3 µM under setting [10] came out at 96.9%. For the same compound, the inhibition at 10 µM under setting [11] came to 101%. The inhibition at 30.9 µM (read-out: Protease % Inhib) came to 102%.
For `CN(c1cccc(C(c2c(O)c3c(oc2=O)CCCCCC3)C2CC2)c1)S(=O)(=O)c1ccccc1` (stereo not drawn) [Example 194, N-methyl-N-[3-[cyclopropyl(5,6,7,8,9,10-hexahydro-4-hydroxy-2-oxo-2H-cycloocta[b]pyran-3-yl)methyl]phenyl]-benzenesulfonamide], the inhibition at 0.123 µM under setting [7] is under 10%. Besides, the inhibition at 0.37 µM under setting [8] was 20%. In addition, the inhibition at 1.1 µM under setting [9] was 53.9%. In addition, the inhibition at 3.3 µM under setting [10] turned out to be 75.2%. Besides, the inhibition at 10 µM under setting [11] stood at 85.5%. Moreover, the inhibition at 30 µM under setting [12] is 85.2%.
Regarding `CCCC1(CCc2ccc(F)cc2)CC(O)=C(C(c2cccc(NS(=O)(=O)c3ccc(C#N)cn3)c2)C(C)(C)C)C(=O)O1` (stereo not drawn) [Example 253, N-[3-{1-(4-Hydroxy-5,6-dihydro-2-oxo-6-(2-(4-fluorophenyl)ethyl)-6-propyl-2H-pyran-3-yl)-2,2-dimethylpropyl}phenyl]-5-cyanopyridine-2-sulfonamide], the inhibition at 0.123 µM under setting [7] is 94%. Further, the inhibition at 0.37 µM under setting [8] was 96.8%. Under setting [9], the inhibition at 1.1 µM came out at 97.6%. Moreover, the inhibition at 3.3 µM under setting [10] turned out to be 95.9%. Besides, under setting [11], the inhibition at 10 µM is 97%. Further, the inhibition at 30 µM under setting [12] amounted to 98.5%.
For `CCCC1(CCC)CC(O)=C(C(CC)c2cccc(NS(=O)(=O)c3ccc(C#N)cn3)c2)C(=O)O1` (stereo not drawn) [Example 262], the inhibition at 0.123 µM under setting [7] was 91.8%. Under setting [8], the inhibition at 0.37 µM amounted to 96.6%. Moreover, the inhibition at 1.1 µM under setting [9] amounted to 97.1%. Also, the inhibition at 3.3 µM under setting [10] worked out at 95.4%. The inhibition at 10 µM under setting [11] was 94.2%. Further, the inhibition at 30 µM under setting [12] was determined as 89.2%.
As for `CCCC1(CCc2ccccc2)CC(O)=C(C(CC)c2cccc(NS(=O)(=O)c3ccc(C#N)cn3)c2)C(=O)O1` (stereo not drawn) [Example 263, N-[3-{1-(4-Hydroxy-5,6-dihydro-2-oxo-6-phenethyl-6-propyl-2H-pyran-3-yl)propyl}phenyl]-5-cyanopyridine-2-sulfonamide], under “read-out: Protease % Inhib”, the inhibition at 0.123 µM is 98.1%, the inhibition at 0.37 µM amounted to 99%, the inhibition at 1.1 µM is 99.1% and the inhibition at 3.3 µM was 98.1%. For the same compound, under “read-out: Protease % Inhib”, the inhibition at 10 µM worked out at 96.2% and the inhibition at 30 µM was 88.2%.
Consider `CCCC1(CCc2ccccc2)CC(O)=C(C(c2cccc(NS(=O)(=O)c3ccc(C#N)cn3)c2)C2CC2)C(=O)O1` (stereo not drawn) [Example 311], for which the “PROTEASE % INHIB.” value runs as follows: under setting [1], 86.51%; under setting [2], 91.49%; under setting [3], 101.8%; under setting [4], 96.5%; under setting [5], 93.77%; under setting [6], 77.63%.
